Data on 15 compounds can be found in patent publication US20250230147A1, “LACTAMS AS CBL-B INHIBITORS” (Genentech, Inc., priority 2021, published 2025).

Usually IC50 stands for the concentration that inhibits the measured activity by half. High values mean weaker potency, low ones greater potency.

One assay addresses c-Cbl (Homo sapiens (Human), UniProt P22681). Kind of assay: C-Cbl LCK Ub TR-FRET assay (c-cbl Lck HTRF). In kind it is biochemical. As to conditions: for (fold-selectivity): C-cbl Lck HTRF IC50 relative to Cbl-b Lck HTRF IC50. The essentials: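 Signal is read once the detection mix has stood 20 min at ambient temperature. Curves are anchored by DMSO as maximum and by omission of LCK as minimum.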
For orientation: Time-resolved FRET reads energy transfer from a long-lived donor to a nearby acceptor.

The next assay concerns the target Cbl-b (Homo sapiens (Human), UniProt Q13191). Kind of assay: Cbl-b LCK Ub TR-FRET assay (Cbl-b Lck HTRF). The class given is biochemical. Put shortly:
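Biotin-Cbl-b preincubated with compound (10-point 3-fold series) 60 min, then His-LCK with 1 mM ATP (2× mixture) added for 90 min at room temperature. Ubiquitination detected by TR-FRET using HA-ubiquitin/UBE2D2 adduct, anti-HA-D2 and streptavidin-Eu; IC50 normalised to no-LCK and DMSO controls.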

Counter-ions that a name gives are not always drawn.

Chain of c-Cbl (P22681 47-435): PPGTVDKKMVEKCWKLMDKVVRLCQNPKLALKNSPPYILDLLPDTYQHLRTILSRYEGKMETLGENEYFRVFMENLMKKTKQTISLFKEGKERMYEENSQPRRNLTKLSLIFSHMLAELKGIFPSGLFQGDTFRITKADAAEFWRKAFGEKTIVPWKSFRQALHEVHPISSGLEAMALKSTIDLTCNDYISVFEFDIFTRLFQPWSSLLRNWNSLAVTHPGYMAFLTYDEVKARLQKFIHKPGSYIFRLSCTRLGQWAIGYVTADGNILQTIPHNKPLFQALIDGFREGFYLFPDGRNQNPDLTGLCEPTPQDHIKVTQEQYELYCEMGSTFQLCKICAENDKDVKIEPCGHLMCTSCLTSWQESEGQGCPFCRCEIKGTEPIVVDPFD
Chain of Cbl-b (Q13191 40-426): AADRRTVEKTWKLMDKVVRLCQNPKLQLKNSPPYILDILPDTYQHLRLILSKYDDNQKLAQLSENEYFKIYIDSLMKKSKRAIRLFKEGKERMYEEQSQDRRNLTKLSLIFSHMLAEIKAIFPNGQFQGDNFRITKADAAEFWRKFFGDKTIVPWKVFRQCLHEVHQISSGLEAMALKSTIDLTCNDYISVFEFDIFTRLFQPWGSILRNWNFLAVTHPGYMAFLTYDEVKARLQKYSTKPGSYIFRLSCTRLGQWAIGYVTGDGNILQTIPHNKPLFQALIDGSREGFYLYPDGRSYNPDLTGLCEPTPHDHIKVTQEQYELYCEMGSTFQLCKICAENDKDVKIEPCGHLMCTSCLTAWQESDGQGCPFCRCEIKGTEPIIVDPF

Regarding `Cn1cnnc1CC1(c2cccc(N3Cc4c(cc(CNC5(C)CCC5)c(F)c4C(F)(F)F)C3=O)c2)CC(F)(F)C1` [Compound 244, 2-(3-(3,3-difluoro-1-((4-methyl-4H-1,2,4-triazol-3-yl)methyl)cyclo-butyl)phenyl)-5-fluoro-6-(((1-methylcyclobutyl)amino)methyl)-4-(trifluoromethyl)isoindolin-1-one], at c-Cbl, the IC50 was 14 nM and the “(fold-selectivity)” value is reported as “(0.97x)”. Further, the midpoint of inhibition on Cbl-b, the IC50, lay at 15 nM.

With `C[C@@H](NC1(C)CCC1)c1cc2c(c(C(F)(F)F)c1)CN(c1cccc(C3(Cc4nncn4C)CC(F)(F)C3)c1)C2=O` [Compound 245, (R)-2-(3-(3,3-difluoro-1-((4-methyl-4H-1,2,4-triazol-3-yl)-methyl)cyclobutyl)phenyl)-6-(1-((1-methylcyclobutyl)amino)ethyl)-4-(trifluoromethyl)-isoindolin-1-one], on c-Cbl, inhibition was half-maximal at 13 nM (IC50) and the “(fold-selectivity)” value was “(1.0x)”. In addition, the IC50 against Cbl-b stood at 13 nM.

In the case of `C[C@H](NC1(C)CCC1)c1cc2c(c(C(F)(F)F)c1)CN(c1cccc(C3(Cc4nncn4C)CC(F)(F)C3)c1)C2=O` [Compound 246, (S)-2-(3-(3,3-difluoro-1-((4-methyl-4H-1,2,4-triazol-3-yl)methyl)-cyclobutyl)phenyl)-6-(1-((1-methylcyclobutyl)amino)ethyl)-4-(trifluoromethyl)isoindolin-1-one], at c-Cbl, the IC50 was determined as 4.4 nM and the “(fold-selectivity)” value was “(0.76x)”. The same compound showed a 50% inhibitory concentration (IC50) at Cbl-b of 5.8 nM.

On to `C[C@@H](NC1(C)CCC1)c1cc2c(c(C(F)(F)F)c1)CN(c1cccc(C3([C@@H](F)c4nncn4C)COC3)c1)C2=O` [Compound 247, 2-(3-(3-((R)-fluoro(4-methyl-4H-1,2,4-triazol-3-yl)methyl)oxetan-3-yl)phenyl)-6-((R)-1-((1-methylcyclobutyl)amino)ethyl)-4-(trifluoromethyl)isoindolin-1-one], for which, at c-Cbl, 11 nM corresponded to half-maximal inhibition (IC50) and the “(fold-selectivity)” value is reported as “(1.4x)”. This compound also had an IC50 against Cbl-b of 7.6 nM.

Take `C[C@H](NC1(C)CCC1)c1cc2c(c(C(F)(F)F)c1)CN(c1cccc(C3([C@@H](F)c4nncn4C)COC3)c1)C2=O` [Compound 248, 2-(3-(3-((R)-fluoro(4-methyl-4H-1,2,4-triazol-3-yl)methyl)oxetan-3-yl)phenyl)-6-((S)-1-((1-methylcyclobutyl)amino)ethyl)-4-(trifluoromethyl)isoindolin-1-one]: on c-Cbl, half-maximal inhibition (IC50) required 5.2 nM and the “(fold-selectivity)” value was “(0.79x)”. Further, it took 6.7 nM to reach half-maximal inhibition on Cbl-b (IC50).

For `Cn1cnnc1[C@H](F)C1(c2cccc(N3Cc4c(cc(CNC5(C)CCC5)cc4C(F)F)C3=O)c2)COC1` [Compound 249, (R)-4-(difluoromethyl)-2-(3-(3-(fluoro(4-methyl-4H-1,2,4-triazol-3-yl)methyl)oxetan-3-yl)phenyl)-6-(((1-methylcyclobutyl)amino)methyl)isoindolin-1-one formate], the results for the IC50 on c-Cbl and at Cbl-b were 20 nM and 12 nM, respectively.

For the compound `Cn1cnnc1CC1(c2cccc(N3Cc4c(cc(CNC5(C)CCC5)cc4C(F)F)C3=O)c2)CC(F)(F)C1` [Compound 250, 2-(3-(3,3-difluoro-1-((4-methyl-4H-1,2,4-triazol-3-yl)methyl)cyclo-butyl)phenyl)-4-(difluoromethyl)-6-(((1-methylcyclobutyl)amino)methyl)isoindolin-1-one], the results for the IC50 on c-Cbl and against Cbl-b were 9.3 nM and 12 nM, respectively. Also, the “(fold-selectivity)” value at c-Cbl is “(0.77x)”.

On to `CSc1cc(C2(Cc3nncn3C)CCC2)cc(N2Cc3c(cc(CNC4(C)CCC4)cc3C(F)(F)F)C2=O)n1` [Compound 251, 2-(4-(1-((4-methyl-4H-1,2,4-triazol-3-yl)methyl)cyclobutyl)-6-(methylthio)pyridin-2-yl)-6-(((1-methylcyclobutyl)amino)methyl)-4-(trifluoromethyl)isoindolin-1-one], for which, on c-Cbl, half-maximal inhibition (IC50) required 8.4 nM and the “(fold-selectivity)” value was “(0.76x)”. The same compound came in with an IC50 against Cbl-b of 11 nM.

On to `Cn1cnnc1CC1(c2cccc(N3Cc4c(Cl)cc(CNC5(C)CCC5)cc4C3=O)c2)CC(F)(F)C1` [Compound 252, 4-chloro-2-(3-(3,3-difluoro-1-((4-methyl-4H-1,2,4-triazol-3-yl)-methyl)cyclobutyl)phenyl)-6-(((1-methylcyclobutyl)amino)methyl)isoindolin-1-one formate], for which the IC50 on c-Cbl was determined as 11 nM; against Cbl-b, 13 nM.

As to `Cn1cnnc1C(F)(F)C1(c2cccc(N3Cc4c(cccc4C(F)(F)F)C3=O)c2)CC(F)(F)C1` [Compound 253, 2-(3-(1-(difluoro(4-methyl-4H-1,2,4-triazol-3-yl)methyl)-3,3-difluorocyclobutyl)phenyl)-4-(trifluoromethyl)isoindolin-1-one], the IC50 on c-Cbl was determined as 3400 nM; against Cbl-b, 1400 nM. In addition, the “(fold-selectivity)” value at c-Cbl is recorded as “(2.6x)”.

For `Cc1ncnn1CC1(c2cccc(N3Cc4c(cc(CN5CCN(C)C[C@@H]5C(C)C)cc4C(F)(F)F)C3=O)c2)COC1` [Compound 254, (S)-6-((2-isopropyl-4-methylpiperazin-1-yl)methyl)-2-(3-(3-((5-methyl-1H-1,2,4-triazol-1-yl)methyl)oxetan-3-yl)phenyl)-4-(trifluoromethyl)isoindolin-1-one], at c-Cbl, it took 3200 nM to reach half-maximal inhibition (IC50) and the “(fold-selectivity)” value is “(1.4x)”. At Cbl-b, this compound yielded an IC50 of 2400 nM.

For `Cc1ncn(CC2(c3cccc(N4Cc5c(cc(CN6CCN(C)C[C@@H]6C(C)C)cc5C(F)(F)F)C4=O)c3)COC2)n1` [Compound 255, (S)-6-((2-isopropyl-4-methylpiperazin-1-yl)methyl)-2-(3-(3-((3-methyl-1H-1,2,4-triazol-1-yl)methyl)oxetan-3-yl)phenyl)-4-(trifluoromethyl)isoindolin-1-one], on c-Cbl, the IC50 is not below 20000 nM and the “(fold-selectivity)” value is reported as “(1.0x)”. 20000 nM corresponded to half-maximal inhibition against Cbl-b (IC50).

For the compound `Cc1cnn(CC2(c3cccc(N4Cc5c(cc(CN6CCN(C)C[C@@H]6C(C)C)cc5C(F)(F)F)C4=O)c3)COC2)n1` [Compound 256, (S)-6-((2-isopropyl-4-methylpiperazin-1-yl)methyl)-2-(3-(3-((4-methyl-2H-1,2,3-triazol-2-yl)methyl)oxetan-3-yl)phenyl)-4-(trifluoromethyl)isoindolin-1-one], at c-Cbl, the midpoint of inhibition, the IC50, lay at 13 nM and the “(fold-selectivity)” value is given as “(0.83x)”. This compound gave an IC50 against Cbl-b of 15 nM.

For the compound `Cc1cn(CC2(c3cccc(N4Cc5c(cc(CN6CCN(C)C[C@@H]6C(C)C)cc5C(F)(F)F)C4=O)c3)COC2)nn1` [Compound 257, (S)-6-((2-isopropyl-4-methylpiperazin-1-yl)methyl)-2-(3-(3-((4-methyl-1H-1,2,3-triazol-1-yl)methyl)oxetan-3-yl)phenyl)-4-(trifluoromethyl)isoindolin-1-one], the IC50 against c-Cbl was determined as 20000 nM; against Cbl-b, 13000 nM. The “(fold-selectivity)” value at c-Cbl is on record as “(1.6x)”.

Take `Cc1cnnn1CC1(c2cccc(N3Cc4c(cc(CN5CCN(C)C[C@@H]5C(C)C)cc4C(F)(F)F)C3=O)c2)COC1` [Compound 258, (S)-6-((2-isopropyl-4-methylpiperazin-1-yl)methyl)-2-(3-(3-((5-methyl-1H-1,2,3-triazol-1-yl)methyl)oxetan-3-yl)phenyl)-4-(trifluoromethyl)isoindolin-1-one]: on c-Cbl, the midpoint of inhibition, the IC50, lay at 31 nM and the “(fold-selectivity)” value is “(1.4x)”. Besides, on Cbl-b, the IC50 amounted to 22 nM.
